# Data published in patent publication US7192958B2, “Sodium channel blockers” (Parion Sciences, Inc., priority 2002, dated 2007).
# Target: T1, airway epithelial sodium currents (epithelial Na+ channel, ENaC) in canine bronchial epithelia (Canis lupus familiaris, UniProt A0A8I3MKE6+A0A8I3Q679+Q95165)
# T1 construct: endogenous in cells; host or cells: primary canine bronchial epithelial cells cultured at air-liquid interface, mounted in Ussing chambers
# T1 sequence (A0A8I3Q679 1-649): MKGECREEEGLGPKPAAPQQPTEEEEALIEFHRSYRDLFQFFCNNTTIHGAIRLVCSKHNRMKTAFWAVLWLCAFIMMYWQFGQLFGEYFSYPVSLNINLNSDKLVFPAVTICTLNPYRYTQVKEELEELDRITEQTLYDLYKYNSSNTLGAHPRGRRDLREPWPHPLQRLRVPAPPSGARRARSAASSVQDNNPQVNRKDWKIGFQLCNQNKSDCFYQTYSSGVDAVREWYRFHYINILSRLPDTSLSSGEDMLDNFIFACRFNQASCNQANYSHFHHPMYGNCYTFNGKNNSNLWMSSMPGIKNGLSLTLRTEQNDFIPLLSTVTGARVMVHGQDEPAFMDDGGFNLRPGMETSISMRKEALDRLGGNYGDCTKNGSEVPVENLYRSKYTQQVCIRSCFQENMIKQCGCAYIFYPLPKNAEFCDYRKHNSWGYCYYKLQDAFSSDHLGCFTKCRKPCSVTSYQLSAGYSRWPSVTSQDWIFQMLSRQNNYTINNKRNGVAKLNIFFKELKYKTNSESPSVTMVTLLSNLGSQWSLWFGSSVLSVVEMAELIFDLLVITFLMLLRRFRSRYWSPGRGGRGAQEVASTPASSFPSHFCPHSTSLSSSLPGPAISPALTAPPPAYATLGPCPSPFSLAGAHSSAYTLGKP
# T1 sequence (Q95165 1-641): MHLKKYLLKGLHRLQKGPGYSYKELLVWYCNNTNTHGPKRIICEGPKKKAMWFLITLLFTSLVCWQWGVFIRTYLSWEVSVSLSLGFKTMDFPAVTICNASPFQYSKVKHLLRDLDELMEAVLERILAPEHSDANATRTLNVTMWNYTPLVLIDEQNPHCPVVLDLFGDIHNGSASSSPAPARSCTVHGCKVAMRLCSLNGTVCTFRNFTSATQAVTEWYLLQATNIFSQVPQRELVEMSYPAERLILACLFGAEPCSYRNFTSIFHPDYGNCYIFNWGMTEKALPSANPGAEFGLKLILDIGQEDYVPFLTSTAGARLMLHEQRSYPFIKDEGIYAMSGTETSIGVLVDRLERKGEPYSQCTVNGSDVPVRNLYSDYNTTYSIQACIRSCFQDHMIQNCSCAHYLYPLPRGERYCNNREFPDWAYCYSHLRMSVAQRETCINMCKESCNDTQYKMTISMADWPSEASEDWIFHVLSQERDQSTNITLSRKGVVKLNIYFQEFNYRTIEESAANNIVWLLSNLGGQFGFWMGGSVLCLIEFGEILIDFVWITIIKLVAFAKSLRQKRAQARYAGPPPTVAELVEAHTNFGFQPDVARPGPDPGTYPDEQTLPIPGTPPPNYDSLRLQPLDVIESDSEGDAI
# T1 sequence (A0A8I3MKE6 1-646): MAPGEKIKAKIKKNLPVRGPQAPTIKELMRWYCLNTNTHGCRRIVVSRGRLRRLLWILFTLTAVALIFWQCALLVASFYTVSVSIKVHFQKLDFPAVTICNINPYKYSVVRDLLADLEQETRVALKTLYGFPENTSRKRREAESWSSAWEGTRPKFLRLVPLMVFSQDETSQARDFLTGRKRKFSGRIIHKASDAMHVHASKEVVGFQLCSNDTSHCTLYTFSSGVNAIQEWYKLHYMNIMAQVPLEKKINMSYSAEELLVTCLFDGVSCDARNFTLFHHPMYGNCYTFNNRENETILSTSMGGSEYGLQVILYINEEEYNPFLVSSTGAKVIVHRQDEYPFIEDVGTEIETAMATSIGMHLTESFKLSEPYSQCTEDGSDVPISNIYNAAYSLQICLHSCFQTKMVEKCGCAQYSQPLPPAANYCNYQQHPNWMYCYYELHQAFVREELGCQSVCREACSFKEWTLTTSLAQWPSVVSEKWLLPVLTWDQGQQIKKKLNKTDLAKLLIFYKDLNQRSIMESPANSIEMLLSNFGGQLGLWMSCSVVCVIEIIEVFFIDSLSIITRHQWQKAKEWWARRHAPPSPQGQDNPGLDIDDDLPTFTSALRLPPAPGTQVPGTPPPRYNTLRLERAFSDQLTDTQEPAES
# Experiment: Sodium channel blocking activity: potency in canine bronchial epithelia, short circuit current (ISC) in Ussing chambers
# Type: cell-based
# Conditions: relative to amiloride as positive control
# Method: One assay used to assess mechanism of action and/or potency of the compounds of the present invention involves the determination of lumenal drug inhibition of airway epithelial sodium currents measured under short circuit current (ISC) using airway epithelial monolayers mounted in Ussing chambers. Cells obtained from freshly excised human, dog, sheep or rodent airways are seeded onto porous 0.4 micron Snapwell™ Inserts (CoStar), cultured at air-liquid interface (ALI) conditions in hormonally defined media, and assayed for sodium transport activity (ISC) while bathed in Krebs Bicarbonate Ringer (KBR) in Using chambers. All test drug additions are to the lumenal bath with half-log dose addition protocols (from 1×10^−11 M to 3×10^−5M), and the cumulative change in ISC (inhibition) recorded. All drugs are prepared in dimethyl sulfoxide as stock solutions at a concentration of […] and stored at −20° C. Eight preparations are typically run in parallel; two preparations per run incorporate amiloride and/or benzamil as positive controls. After the maximal concentration ([…]) is administered, the lumenal bath is exchanged three times with fresh drug-free KBR solution, and the resultant ISCmeasured after each wash for approximately 5 minutes in duration. Reversibility is defined as the percent return to the baseline value for sodium current after the third wash. All data from the voltage clamps are collected via a computer interface and analyzed off-line.
# Dose-effect relationships for all compounds are considered and analyzed by the Prism 3.0 program. IC50 values, maximal effective concentrations, and reversibility are calculated and compared to amiloride and benzamil as positive controls.
# Amiloride was also tested in this assay as a positive control. The results for the compounds of the present invention are reported as fold-enhancement values relative to amiloride.
row,SMILES,Fold Enhancement Over Amiloride
1,"Cl.N=C(NCCCCc1ccc(O)cc1O)NC(=O)c1nc(Cl)c(N)nc1N [drawing 26 Position 2,4 R H, 4-(2,4-Dihydroxyphenyl)butylamidino-3,5-diamino-6-chloropyrazinecarboxamide hydrochloride]",14.9 fold
2,"Cl.N=C(NCCCCc1ccc(O)c(O)c1)NC(=O)c1nc(Cl)c(N)nc1N [drawing 26 Position 3,4 R H, 4-(3,4-Dihydroxyphenyl)butylamidino-3,5-diamino-6-chloropyrazinecarboxamide hydrochloride]",15.1 fold
3,"Br.N=C(NCCCOc1ccc(O)cc1)NC(=O)c1nc(Cl)c(N)nc1N [drawing 29 a CH2 b O R H, 4-(4-Hydroxyphenyl)-4-oxabutylamidino-3,5-diamino-6-chloropyrazinecarboxamide hydrobromide]",16.1 fold

# Further lines, results first:
row,Fold Enhancement Over Amiloride,SMILES
1,5.2 fold,"Cl.N=C(NCCCc1ccc(O)cc1)NC(=O)c1nc(Cl)c(N)nc1N [drawing 27 n 3 Position of R 4 R OH, 3-(4-Hydroxyphenyl)propylamidino-3,5-diamino-6-chloropyrazinecarboxamide hydrochloride]"
2,50.3 fold,"Cl.N=C(NCCCCc1ccc(O)cc1)NC(=O)c1nc(Cl)c(N)nc1N [drawing 27 n 4 Position of R 4 R OH, 4-(4-hydroxyphenyl)butylamidino-3,5-diamino-6-chloropyrazinecarboxamide hydrochloride]"
3,14 fold,"Cl.N=C(NCCCCCc1ccc(O)cc1)NC(=O)c1nc(Cl)c(N)nc1N [drawing 27 n 5 Position of R 4 R OH, 5-(4-Hydroxyphenyl)pentylamidino-3,5-diamino-6-chloropyrazinecarboxamide hydrochloride]"
